Assay results reported in publication PMC3552018 (Insect molecular biology, 2012).

Biological target: T1, LUSH (Drosophila melanogaster, UniProt O02372)
T1 sequence (O02372 30-153): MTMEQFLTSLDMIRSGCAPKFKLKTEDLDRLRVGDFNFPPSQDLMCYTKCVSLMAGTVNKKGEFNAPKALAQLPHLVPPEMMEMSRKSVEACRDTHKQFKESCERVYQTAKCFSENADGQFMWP
Assay type: binding

SMILES: CCC/C=C\C=C\CCCCCCCCCO [bombykol]
- Kd: 215 nM

SMILES: CCCCCC/C=C\CCCCCCCCCCOC(C)=O [cVA, 11-cis vaccenyl acetate]
- Kd: 108 nM
